Reference: the supplement of paper PMC10307832

What was measured:
Experiment in all cases: relative viability (nuclei count vs DMSO), 5 days (fraction); higher = more cells survive
[1] = compound: CC1CC(=O)N(C2=CN=C(N=C2N1C3CCCC3)NC4=C(C=C(C=C4)C(=O)NC5CCN(CC5)C)OC)C [NPK76-II-72-1] + Nc1ncn([C@H]2C[C@H](O)[C@@H](CO)O2)c(=O)n1 [Decitabine] (partner 2 µM)
Summary of the method: (§1)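 Values are medians from duplicate plates. Each reflects relative viability, defined as the nuclei count of treated wells over that of vehicle wells. Lung cancer cell lines in 1536-well plates were pin-tool dosed one day after seeding with one drug alone or with a fixed anchor-drug dose plus five library-drug doses (not always all listed) in √10 steps, then fixed, stained and imaged at 4× after 5 days.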

[2] = compound: CC1CC(=O)N(C2=CN=C(N=C2N1C3CCCC3)NC4=C(C=C(C=C4)C(=O)NC5CCN(CC5)C)OC)C [NPK76-II-72-1] + O=C(CCCCCCC(=O)Nc1ccccc1)NO [Vorinostat] (partner 1 µM)
Summary of the method: as §1

BI-2536 + Lapatinib = compound: CC[C@@H]1C(=O)N(C)c2cnc(Nc3ccc(C(=O)NC4CCN(C)CC4)cc3OC)nc2N1C1CCCC1 [BI-2536] + CS(=O)(=O)CCNCc1ccc(-c2ccc3ncnc(Nc4ccc(OCc5cccc(F)c5)c(Cl)c4)c3c2)o1 [Lapatinib] (partner 2 µM)
Summary of the method: as §1

BI-2536 + Alpelisib = compound: CC[C@@H]1C(=O)N(C)c2cnc(Nc3ccc(C(=O)NC4CCN(C)CC4)cc3OC)nc2N1C1CCCC1 [BI-2536] + Cc1nc(NC(=O)N2CCC[C@H]2C(N)=O)sc1-c1ccnc(C(C)(C)C(F)(F)F)c1 [Alpelisib] (partner 2 µM)
Summary of the method: as §1

| Cell Line | relative viability ([1]; first compound 0.01 µM) | relative viability ([1]; first compound 0.03162 µM) | relative viability ([1]; first compound 0.1 µM) | relative viability ([1]; first compound 0.3162 µM) | relative viability ([1]; first compound 1 µM) | relative viability ([2]; first compound 0.01 µM) | relative viability ([2]; first compound 0.03162 µM) | relative viability ([2]; first compound 0.1 µM) | relative viability ([2]; first compound 0.3162 µM) | relative viability ([2]; first compound 1 µM) | relative viability (BI-2536 + Lapatinib; first compound 0.01 µM) | relative viability (BI-2536 + Lapatinib; first compound 0.03162 µM) | relative viability (BI-2536 + Lapatinib; first compound 0.1 µM) | relative viability (BI-2536 + Lapatinib; first compound 0.3162 µM) | relative viability (BI-2536 + Lapatinib; first compound 1 µM) | relative viability (BI-2536 + Alpelisib; first compound 0.01 µM) | relative viability (BI-2536 + Alpelisib; first compound 0.03162 µM) | relative viability (BI-2536 + Alpelisib; first compound 0.1 µM) | relative viability (BI-2536 + Alpelisib; first compound 0.3162 µM) | relative viability (BI-2536 + Alpelisib; first compound 1 µM) |
| --- | --- | --- | --- | --- | --- | --- | --- | --- | --- | --- | --- | --- | --- | --- | --- | --- | --- | --- | --- | --- |
| LU99A | 0.897 | 0.833 | 0.75 | 0.928 | 0.916 | 0.437 | 0.492 | 0.62 | 0.535 | 0.528 | 0.889 | 1.07 | 0.193 | 0.202 | 0.211 | 0.53 | 0.515 | 0.209 | 0.146 | 0.179 |
| LXF-289 | 0.345 | 0.374 | 0.364 | 0.383 | 0.357 | 0.772 | 0.714 | 0.703 | 0.655 | 0.756 | 0.889 | 0.839 | 0.443 | 0.0583 | 0.0798 | 1.02 | 0.975 | 0.519 | 0.0396 | 0.0625 |
| NCI-H23 | 0.31 | 0.315 | 0.264 | 0.405 | 0.306 | 0.609 | 0.657 | 0.637 | 0.515 | 0.627 | 1.07 | 0.773 | 0.168 | 0.171 | 0.147 | 0.734 | 0.737 | 0.369 | 0.139 | 0.135 |
| NCI-H322M | 0.675 | 0.711 | 0.714 | 0.743 | 0.77 | 0.886 | 0.808 | 0.861 | 1.01 | 0.913 | 0.545 | 0.483 | 0.59 | 0.673 | 0.251 | 0.912 | 0.881 | 0.811 | 0.618 | 0.269 |
| NCI-H358 | 0.193 | 0.215 | 0.222 |  | 0.214 | 0.674 | 0.647 | 0.754 |  | 0.818 | 0.454 | 0.312 | 0.174 | 0.161 | 0.182 | 0.995 | 0.537 | 0.154 | 0.158 | 0.159 |
| NCI-H460 | 0.432 | 0.492 | 0.521 | 0.455 | 0.47 | 0.684 | 0.799 | 0.703 | 0.748 | 0.636 | 1.04 | 0.257 | 0.206 | 0.0105 | 0.011 | 0.523 | 0.481 | 0.0303 | 0.0093 | 0.0065 |
| NCI-H520 | 0.455 | 0.575 | 0.589 | 0.496 | 0.586 | 0.706 | 0.84 | 0.698 | 0.741 | 0.748 | 0.686 | 0.471 | 0.154 | 0.193 | 0.164 | 0.833 | 0.828 | 0.315 | 0.201 | 0.154 |
| NCI-H596 | 1.02 | 1.19 | 1.01 | 1 | 1.01 | 0.718 | 0.615 | 0.696 | 0.631 | 0.723 | 1.17 | 1.05 | 0.571 | 0.346 | 0.273 | 0.409 | 0.46 | 0.535 | 0.305 | 0.304 |
| NCI-H647 | 0.379 | 0.364 | 0.418 | 0.367 | 0.454 | 0.575 | 0.568 | 0.4 | 0.668 | 0.725 | 1.11 | 0.737 | 0.104 | 0.0701 | 0.129 | 1.19 | 0.57 | 0.571 | 0.0897 | 0.091 |
| NCI-H650 | 0.316 | 0.33 | 0.358 | 0.311 | 0.299 | 0.445 | 0.441 | 0.453 | 0.307 | 0.521 | 0.882 | 0.85 | 0.166 | 0.214 | 0.151 | 1.02 | 0.778 | 0.437 | 0.218 | 0.127 |
| NCI-H661 | 0.582 | 0.553 | 0.589 | 0.458 | 0.56 | 0.772 | 0.785 | 0.755 | 0.735 | 0.795 | 0.498 | 0.543 | 0.398 | 0.224 | 0.179 | 0.149 | 0.577 | 0.619 | 0.216 | 0.24 |
| NCI-H727 | 0.874 | 0.888 | 0.801 | 0.785 | 0.764 | 1.23 | 1.33 | 1.2 | 1.22 | 1.29 | 0.972 | 0.853 | 0.512 | 0.268 | 0.242 | 0.616 | 0.636 | 0.453 | 0.245 | 0.238 |
| NCI-H838 | 0.495 | 0.458 | 0.455 | 0.466 | 0.476 | 0.69 | 0.73 | 0.717 | 0.684 | 0.672 | 1.04 | 0.877 | 0.155 | 0.101 | 0.133 | 0.967 | 1 | 0.661 | 0.124 | 0.144 |
| NCI-H1355 | 0.349 | 0.359 | 0.338 | 0.315 | 0.344 | 0.597 | 0.613 | 0.606 | 0.56 | 0.715 | 0.996 | 0.976 | 0.62 | 0.194 | 0.183 | 0.701 | 0.797 | 0.753 | 0.226 | 0.17 |
| NCI-H1395 | 0.758 | 0.619 | 0.628 | 0.693 | 0.753 | 0.711 | 0.67 | 0.642 | 0.721 | 0.84 | 0.868 | 0.905 | 0.415 | 0.353 | 0.733 | 0.958 | 0.502 | 0.43 | 0.499 | 0.369 |
| NCI-H1437 | 0.579 | 0.523 | 0.531 | 0.558 | 0.641 | 0.779 | 0.907 | 0.736 | 0.748 | 0.894 | 0.784 | 0.718 | 0.237 | 0.116 | 0.122 | 0.981 | 0.742 | 0.422 | 0.113 | 0.0916 |
